What was measured:
Format in all cases: physicochemical
[1] = pKa of unformulated amine lipid by TNS fluorescence; conditions: sodium phosphate buffer; Table 2; unformulated amine lipid, TNS; read-out: Lipid pKa
In short: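 Unformulated amine lipid was diluted from ethanol stock to approx. 100 μM in 0.1 M sodium phosphate buffers spanning pH 4.5–9.0 with TNS. Fluorescence read at ex 321/em 448 nm; normalized data fitted sigmoidally to give pKa.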

[2] = LNP average particle size and polydispersity by dynamic light scattering; conditions: sgRNA:mRNA 1:2
In short: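 Z-average (intensity-based) and number-mean diameters plus PDI measured by DLS on LNP samples diluted in PBS. LNPs carried sgRNA and Cas9 mRNA at 1:2 w/w, with lipids at 50% ionizable lipid, 38% cholesterol, 9% DSPC and 3% PEG lipid (PEG2K-DMG, C13 Ether or C14 Ether).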

[3] = LNP encapsulation efficiency of RNA (Ribogreen fluorescence assay); conditions: sgRNA:mRNA 1:2
In short: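 RiboGreen fluorescence (ex 488/em 525 nm) measured total RNA in 1×TE with 0.2% Triton X-100 and free RNA in 1×TE alone, against standard curves of the starting RNA; encapsulation = (total − free)/total. Total RNA alternatively quantified after Triton disruption by RP-IP HPLC, UV 260 nm.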

[4] = Table 3, Experiments 1-13, LNP 50% ionizable lipid, 38% cholesterol, 9% DSPC, 3% PEG2K-DMG
[5] = LNP with 50% ionizable lipid, 38% cholesterol, 9% DSPC, 3% C13 Ether (LNP #1, Compound 53: 3% PEG2K-DMG instead)
[6] = Table 3, Experiment 14, LNP with 3% C13 Ether

Row | Compound | pKa [1] | Number mean [2, 4] | PDI [2, 4] | Z-avg [2, 4] | % E (encapsulation efficiency) [3, 4] | Number mean (average particle size) [2, 5] | PDI (polydispersity index) [2, 5] | Z-avg (average particle size) [2, 5] | % E (encapsulation efficiency) [3, 5] | Number mean [2, 6] | PDI [2, 6] | Z-avg [2, 6] | % E (encapsulation efficiency) [3, 6]
1 | CCCCCCCCC(CCCCCCCC)OC(=O)CCCC(=O)OCC(COC(=O)CCCC(=O)OC(CCCCCCCC)CCCCCCCC)COC(=O)OCCCN(C)CC [Compound 30, O,O′-(2-((((3-(ethyl(methyl)amino)propoxy)carbonyl)oxy)methyl)propane-1,3-diyl) di(heptadecan-9-yl) diglutarate] | 6.4 | 64 nm | 0.02 | 71 nm | 99% | – | – | – | – | – | – | – | –
2 | CCCCCCCCC(CCCCCCCC)OC(=O)CCCC(=O)OCC(COC(=O)CCCC(=O)OC(CCCCCCCC)CCCCCCCC)COC(=O)OCCCN1CCCCC1 [Compound 32, di(heptadecan-9-yl) O,O′-(2-((((3-(piperidin-1-yl)propoxy)carbonyl)oxy)methyl)propane-1,3-diyl) diglutarate] | 5.7 | 59 nm | 0.008 | 63 nm | 99% | – | – | – | – | – | – | – | –
3 | CCCCCCCCC(CCCCCCCC)OC(=O)CCCC(=O)OCC(COC(=O)CCCC(=O)OC(CCCCCCCC)CCCCCCCC)COC(=O)OCCCN1CCCC1 [Compound 33, di(heptadecan-9-yl) O,O′-(2-((((3-(pyrrolidin-1-yl)propoxy)carbonyl)oxy)methyl)propane-1,3-diyl) diglutarate] | 6.5 | 66 nm | 0.023 | 71 nm | 100% | 60 nm | 0.01 | 73 nm | 99% | – | – | – | –
4 | CCCCCCCCC(CCCCCCCC)OC(=O)CCCC(=O)OCC(COC(=O)CCCC(=O)OC(CCCCCCCC)CCCCCCCC)OC(=O)NCCN(CC)CC [Compound 35, O,O′-(2-(((2-(diethylamino)ethyl)carbamoyl)oxy)propane-1,3-diyl) di(heptadecan-9-yl) diglutarate] | 6.83 | – | – | – | – | – | – | – | – | 67 nm | 0.019 | 76 nm | 99%
5 | CCCCC/C=C\C/C=C\CCCCCCCC(=O)OCC(COC(=O)CCCC(=O)OC(CCCCCCCC)CCCCCCCC)COC(=O)N(C)CCN(CC)CC (stereo not shown) [Compound 49, 3-(((2-(diethylamino)ethyl)(methyl)carbamoyl)oxy)-2-((((9Z,12Z)-octadeca-9,12-dienoyl)oxy)methyl)propyl heptadecan-9-yl Glutarate] | 6.38 | 87 nm | 0.01 | 91 nm | 97% | – | – | – | – | – | – | – | –
6 | CCCCC/C=C\C/C=C\CCCCCCCC(=O)OCC(COC(=O)CCCC(=O)OC(CCCCCCCC)CCCCCCCC)COC(=O)NCCN1CCCCCC1 (stereo not shown) [Compound 50, 3-(((2-(azepan-1-yl)ethyl)carbamoyl)oxy)-2-((((9Z,12Z)-octadeca-9,12-dienoyl)oxy)methyl)propyl heptadecan-9-yl Glutarate] | 6.6 | 66 nm | 0.02 | 74 nm | 98% | – | – | – | – | – | – | – | –
7 | CCCCCCCCC(CCCCCCCC)OC(=O)CCCCCC(=O)OCC(CCCCCCCCC(=O)OCC(CCCC)CCCCCC)COC(=O)NCCN(CC)CC (stereo not shown) [Compound 51, 1-(11-((2-butyloctyl)oxy)-2-((((2-(diethylamino)ethyl)carbamoyl)oxy)methyl)-11-oxoundecyl) 7-(heptadecan-9-yl) heptanedioate] | 6.39 | 81 nm | 0.03 | 90 nm | 99% | – | – | – | – | – | – | – | –

More lines, now with the values ahead:

Row | pKa [1] | Number mean [2, 4] | PDI [2, 4] | Z-avg [2, 4] | % E (encapsulation efficiency) [3, 4] | Number mean (average particle size) [2, 5] | PDI (polydispersity index) [2, 5] | Z-avg (average particle size) [2, 5] | % E (encapsulation efficiency) [3, 5] | Number mean [2, 6] | PDI [2, 6] | Z-avg [2, 6] | % E (encapsulation efficiency) [3, 6] | Compound
8 | 6.36 | 76 nm | 0.01 | 81 nm | 98% | – | – | – | – | – | – | – | – | CCCCC/C=C\C/C=C\CCCCCCCC(=O)OCC(CCCCCCCCC(=O)OC(CCCCCCCC)CCCCCCCCC)COC(=O)CCC(CCCC)OC(=O)NCCN(C)CC (stereo not shown) [Compound 26, 9-butyl-3-methyl-15-(9-(octadecan-9-yloxy)-9-oxononyl)-7,12-dioxo-8,13-dioxa-3,6-diazahexadecan-16-yl (9Z,12Z)-octadeca-9,12-dienoate]
9 | 6.75 | 77 nm | 0.01 | 82 nm | 98% | – | – | – | – | – | – | – | – | CCCCC/C=C\C/C=C\CCCCCCCC(=O)OCC(CCCCCCCCC(=O)OC(CCCCCCCC)CCCCCCCCC)COC(=O)CCC(CCCC)OC(=O)NCCN1CCCC1 (stereo not shown) [Compound 27, 11-(octadecan-9-yloxy)-11-oxo-2-(((4-(((2-(pyrrolidin-1-yl)ethyl)carbamoyl)oxy)octanoyl)oxy)methyl)undecyl (9Z,12Z)-octadeca-9,12-dienoate]
10 | 6.2 | 60 nm | 0.022 | 65 nm | 99% | – | – | – | – | – | – | – | – | CCCCCCCCC(CCCCCCCC)OC(=O)CCCC(=O)OCC(COC(=O)CCCC(=O)OC(CCCCCCCC)CCCCCCCC)COC(=O)NCCN1CCCCC1 [Compound 28, di(heptadecan-9-yl) O,O′-(2-((((2-(piperidin-1-yl)ethyl)carbamoyl)oxy)methyl)propane-1,3-diyl) diglutarate]
11 | 7.1 | 67 nm | 0.023 | 74 nm | 100% | – | – | – | – | – | – | – | – | CCCCCCCCC(CCCCCCCC)OC(=O)CCCC(=O)OCC(COC(=O)CCCC(=O)OC(CCCCCCCC)CCCCCCCC)COC(=O)NCCN1CCCC1 [Compound 29, di(heptadecan-9-yl) O,O′-(2-((((2-(pyrrolidin-1-yl)ethyl)carbamoyl)oxy)methyl)propane-1,3-diyl) diglutarate]
12 | 6.8 | 59 nm | 0.003 | 64 nm | 100% | – | – | – | – | – | – | – | – | CCCCCCCCC(CCCCCCCC)OC(=O)CCCC(=O)OCC(COC(=O)CCCC(=O)OC(CCCCCCCC)CCCCCCCC)COC(=O)OCCCN(C)C [Compound 31, O,O′-(2-((((3-(dimethylamino)propoxy)carbonyl)oxy)methyl)propane-1,3-diyl) di(heptadecan-9-yl) diglutarate]
13 | 6.33 | – | – | – | – | – | – | – | – | 61 nm | 0.032 | 69 nm | 98% | CCCCCCCCC(CCCCCCCC)OC(=O)CCCC(=O)OCC(COC(=O)CCCC(=O)OC(CCCCCCCC)CCCCCCCC)COC(=O)CCCN(C)C [Compound 34, O,O′-(2-(((4-(dimethylamino)butanoyl)oxy)methyl)propane-1,3-diyl) di(heptadecan-9-yl) diglutarate]
14 | 6.66 | 71 nm | 0.014 | 78 nm | 99% | – | – | – | – | – | – | – | – | CCCCCCC(CCCCCC)OC(=O)CCCC(=O)OCC(COC(=O)CCCC(=O)OC(CCCCCC)CCCCCC)COC(=O)NCCN(CC)CC [Compound 37, O,O′-(2-((((2-(diethylamino)ethyl)carbamoyl)oxy)methyl)propane-1,3-diyl) di(tridecan-7-yl) diglutarate]
15 | 5.97 | – | – | – | – | – | – | – | – | 48 nm | 0.062 | 57 nm | 92% | CCCCCCCCC(CCCCCCCC)C(=O)OCC(COC(=O)NCCN(CC)CC)COC(=O)C(CCCCCCCC)CCCCCCCC [Compound 40, 2-((((2-(diethylamino)ethyl)carbamoyl)oxy)methyl)propane-1,3-diyl bis(2-octyldecanoate)]
